Laboratory results from patent US11613522B2, “Herbicidally active 3-phenylisoxazoline-5-carboxamides of tetrahydro- and dihydrofurancarboxamides” (BAYER AKTIENGESELLSCHAFT, priority 2017, dated 2023).

What was measured:
Assay type in all cases: in vivo
[1] = tested on: Viola tricolor; assay: Pre-emergence herbicidal activity against VIOTR; conditions: dosage 80 g/ha, scored visually after about 3 weeks vs untreated controls; for pest or weed control at 80 g/ha: Viola tricolor, 504 h
Method in brief: (§1)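 Emulsion concentrates or wettable powders, diluted in water containing 0.5% additive, go onto covering soil at a spray volume of 600 l/ha. Percent herbicidal effect is judged by eye about 3 weeks later in the greenhouse, 0% meaning like control plants and 100% meaning dead.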

[2] = tested on: Avena fatua; assay: Post-emergence herbicidal activity against AVEFA; conditions: dosage 320 g/ha, rated visually after about 3 weeks; for pest or weed control at 320 g/ha: Avena fatua, 504 h
Method in brief: (§2)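 Post-emergence foliar spray of wettable-powder or emulsion-concentrate formulations (0.5% additive, 600 l/ha water) onto one-leaf-stage greenhouse plants. Percent activity scored by eye after ~3 weeks against untreated plants; 0% equals control growth, 100% equals plant death.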

[3] = tested on: Alopecurus myosuroides; assay: Post-emergence herbicidal activity against ALOMY; conditions: dosage 320 g/ha, rated visually after about 3 weeks; for pest or weed control at 320 g/ha: Alopecurus myosuroides, 504 h
Method in brief: as §2

[4] = tested on: Setaria viridis; assay: Pre-emergence herbicidal activity against SETVI; conditions: dosage 80 g/ha, scored visually after about 3 weeks vs untreated controls; for pest or weed control at 80 g/ha: Setaria viridis, 504 h
Method in brief: as §1

[5] = tested on: Echinochloa crus-galli; assay: Post-emergence herbicidal activity against ECHCG; conditions: dosage 320 g/ha, rated visually after about 3 weeks; for pest or weed control at 320 g/ha: Echinochloa crus-galli, 504 h
Method in brief: as §2

[6] = tested on: Echinochloa crus-galli; assay: Pre-emergence herbicidal activity against ECHCG; conditions: dosage 80 g/ha, scored visually after about 3 weeks vs untreated controls; for pest or weed control at 80 g/ha: Echinochloa crus-galli, 504 h
Method in brief: as §1

[7] = tested on: Polygonum convolvulus; assay: Post-emergence herbicidal activity against POLCO; conditions: dosage 320 g/ha, rated visually after about 3 weeks; for pest or weed control at 320 g/ha: Fallopia convolvulus, 504 h
Method in brief: as §2

[8] = tested on: Pharbitis purpurea; assay: Post-emergence herbicidal activity against PHBPU; conditions: dosage 320 g/ha, rated visually after about 3 weeks; for pest or weed control at 320 g/ha: Ipomoea purpurea, 504 h
Method in brief: as §2

[9] = tested on: Alopecurus myosuroides; assay: Pre-emergence herbicidal activity against ALOMY; conditions: dosage 80 g/ha, scored visually after about 3 weeks vs untreated controls; for pest or weed control at 80 g/ha: Alopecurus myosuroides, 504 h
Method in brief: as §1

[10] = tested on: Amaranthus retroflexus; assay: Post-emergence herbicidal activity against AMARE; conditions: dosage 320 g/ha, rated visually after about 3 weeks; for pest or weed control at 320 g/ha: Amaranthus retroflexus, 504 h
Method in brief: as §2

[11] = tested on: Setaria viridis; assay: Post-emergence herbicidal activity against SETVI; conditions: dosage 320 g/ha, rated visually after about 3 weeks
Method in brief: as §2

[12] = tested on: Stellaria media; assay: Pre-emergence herbicidal activity against STEME; conditions: dosage 80 g/ha, scored visually after about 3 weeks vs untreated controls; for pest or weed control at 80 g/ha: Stellaria media, 504 h
Method in brief: as §1

[13] = tested on: Polygonum convolvulus; assay: Pre-emergence herbicidal activity against POLCO; conditions: dosage 80 g/ha, scored visually after about 3 weeks vs untreated controls; for pest or weed control at 80 g/ha: Fallopia convolvulus, 504 h
Method in brief: as §1

[14] = tested on: Hordeum murinum; assay: Pre-emergence herbicidal activity against HORMU; conditions: dosage 80 g/ha; for pest or weed control at 80 g/ha: Hordeum murinum, 504 h
Method in brief: as §1

[15] = tested on: Lolium rigidum; assay: Pre-emergence herbicidal activity against LOLRI; conditions: dosage 80 g/ha, scored visually after about 3 weeks vs untreated controls; for pest or weed control at 80 g/ha: Lolium rigidum, 504 h
Method in brief: as §1

[16] = tested on: Veronica persica; assay: Pre-emergence herbicidal activity against VERPE; conditions: dosage 80 g/ha; for pest or weed control at 80 g/ha: Veronica persica, 504 h
Method in brief: as §1

[17] = tested on: Avena fatua; assay: Pre-emergence herbicidal activity against AVEFA; conditions: dosage 80 g/ha, scored visually after about 3 weeks vs untreated controls; for pest or weed control at 80 g/ha: Avena fatua, 504 h, read-out: Pre-emergence herbicidal activity in % against AVEVA (AVEFA)
Method in brief: as §1

[18] = tested on: Abutilon theophrasti; assay: Post-emergence herbicidal activity against ABUTH; conditions: dosage 320 g/ha, rated visually after about 3 weeks; for pest or weed control at 320 g/ha: Abutilon theophrasti, 504 h
Method in brief: as §2

[19] = tested on: Pharbitis purpurea; assay: Pre-emergence herbicidal activity against PHBPU; conditions: dosage 80 g/ha, scored visually after about 3 weeks vs untreated controls
Text: (§3) 1. Pre-emergence herbicidal action against harmful plants and crop plant compatibility Seeds of monocotyledonous and dicotyledonous weed plants and crop plants are placed in plastic or wood fiber pots and covered with soil. The compounds of the invention, formulated in the form of wettable powders (WP) or as emulsion concentrates (EC), are then applied onto the surface of the covering soil as aqueous suspension or emulsion with addition of 0.5% additive at a water application rate of 600 l/ha (converted). After the treatment, the pots are placed in a greenhouse and kept under good growth conditions for the trial plants. After about 3 weeks, the effect of the preparations is scored visually in comparison with untreated controls as percentages. For example, 100% activity=the plants have died, 0% activity=like control plants. [table]

[20] = tested on: Hordeum murinum; assay: Post-emergence herbicidal activity against HORMU; conditions: dosage 320 g/ha, rated visually after about 3 weeks; for pest or weed control at 320 g/ha: Hordeum murinum, 504 h
Method in brief: as §2

[21] = tested on: Veronica persica; assay: Post-emergence herbicidal activity against VERPE; conditions: dosage 320 g/ha, rated visually after about 3 weeks; for pest or weed control at 320 g/ha: Veronica persica, 504 h
Method in brief: as §2

[22] = tested on: Amaranthus retroflexus; assay: Pre-emergence herbicidal activity against AMARE; conditions: dosage 80 g/ha, scored visually after about 3 weeks vs untreated controls; for pest or weed control at 80 g/ha: Amaranthus retroflexus, 504 h
Method in brief: as §1

[23] = tested on: Stellaria media; assay: Post-emergence herbicidal activity against STEME; conditions: dosage 320 g/ha, rated visually after about 3 weeks; for pest or weed control at 320 g/ha: Stellaria media, 504 h
Method in brief: as §2

[24] = tested on: Lolium rigidum; assay: Post-emergence herbicidal activity against LOLRI; conditions: dosage 320 g/ha, rated visually after about 3 weeks; for pest or weed control at 320 g/ha: Lolium rigidum, 504 h
Method in brief: as §2

[25] = tested on: Viola tricolor; assay: Post-emergence herbicidal activity against VIOTR; conditions: dosage 320 g/ha, rated visually after about 3 weeks; for pest or weed control at 320 g/ha: Viola tricolor, 504 h
Method in brief: as §2

[26] = Pre-emergence herbicidal action against harmful plants (summary of the tables); conditions: 504 h, application rate of 0.08 kg of active substance or less per hectare, read-out: herbicidal action, pre-emergence treatment (very good activity)
Text: as §3, with “plants.” for “plants. [table]”
As shown by the results, compounds according to the invention such as, for example, the compounds No. I-02 and other compounds from the tables (I-05, I-10, I-11, I-12, I-13, I-14, I-15, I-16, I-17, I-18, I-19, I-20, I-21, I-22, I-23, I-24, I-25, I-26, I-27, I-28, I-29) have, when used for pre-emergence treatment, very good activity (80% to 100% herbicidal action) against harmful plants such as Abutilon theophrasti, Alopecurus myosuroides, Amaranthus retroflexus, Avena fatua, Cyperus esculentus, Echinochloa crus-galli, Hordeum murinum, Lolium rigidum, Pharbitis purpurea, Polygonum convolvulus, Setaria viridis, Stellaria media, Veronica persica and Viola tricolor at an application rate of 0.08 kg of active substance or less per hectare.

CONC(=O)[C@@H]1C[C@H](NC(=O)[C@@]2(C)CC(c3cc(F)cc(F)c3)=NO2)CO1 [Example I-24]
80%: Post-emergence herbicidal activity in % against POLCO [7] | Post-emergence herbicidal activity in % against AMARE [10] | Post-emergence herbicidal activity in % against SETVI [11] | Post-emergence herbicidal activity in % against ABUTH [18] | Post-emergence herbicidal activity in % against VERPE [21]
90%: Pre-emergence herbicidal activity in % against VIOTR [1] | Pre-emergence herbicidal activity in % against ECHCG [6] | Post-emergence herbicidal activity in % against PHBPU [8] | Pre-emergence herbicidal activity in % against STEME [12] | Pre-emergence herbicidal activity in % against POLCO [13] | Pre-emergence herbicidal activity in % against VERPE [16] | Pre-emergence herbicidal activity in % against PHBPU [19] | Post-emergence herbicidal activity in % against VIOTR [25]
100%: Post-emergence herbicidal activity in % against AVEFA [2] | Post-emergence herbicidal activity in % against ALOMY [3] | Pre-emergence herbicidal activity in % against SETVI [4] | Post-emergence herbicidal activity in % against ECHCG [5] | Pre-emergence herbicidal activity in % against ALOMY [9] | Pre-emergence herbicidal activity in % against HORMU [14] | Pre-emergence herbicidal activity in % against LOLRI [15] | Pre-emergence herbicidal activity in % against AVEVA (AVEFA) [17] | Post-emergence herbicidal activity in % against HORMU [20] | Pre-emergence herbicidal activity in % against AMARE [22] | Post-emergence herbicidal activity in % against STEME [23] | Post-emergence herbicidal activity in % against LOLRI [24]

C=C[C@]1(C(=O)N[C@@H]2CO[C@H](C(=O)NOCC)C2)CC(c2cc(F)cc(F)c2)=NO1 (mixture of isomers) [Example I-12, (5S)-3-(3,5-difluorophenyl)-N-[cis-5-(ethoxycarbamoyl)tetrahydrofuran-3-yl]-5-vinyl-4H-isoxazole-5-carboxamide]
80%: pest or weed control at 320 g/ha [7] | pest or weed control at 320 g/ha [8] | pest or weed control at 320 g/ha [10] | pest or weed control at 320 g/ha [18] | pest or weed control at 320 g/ha [21] | pest or weed control at 320 g/ha [25]
90%: pest or weed control at 320 g/ha [3] | pest or weed control at 320 g/ha [5] | Pre-emergence herbicidal activity in % against PHBPU [19] | pest or weed control at 320 g/ha [20] | pest or weed control at 320 g/ha [23] | pest or weed control at 320 g/ha [24]
80 to 100%: pest or weed control at 80 g/ha [26]
100%: pest or weed control at 80 g/ha [1] | pest or weed control at 320 g/ha [2] | pest or weed control at 80 g/ha [4] | pest or weed control at 80 g/ha [6] | pest or weed control at 80 g/ha [9] | pest or weed control at 80 g/ha [12] | pest or weed control at 80 g/ha [13] | pest or weed control at 80 g/ha [14] | pest or weed control at 80 g/ha [15] | pest or weed control at 80 g/ha [16] | pest or weed control at 80 g/ha [17] | pest or weed control at 80 g/ha [22]

C=C[C@]1(C(=O)N[C@@H]2CO[C@H](C(=O)NS(=O)(=O)C(F)(F)F)C2)CC(c2cc(F)cc(F)c2)=NO1 (mixture of isomers) [Example I-14, (5S)-3-(3,5-difluorophenyl)-N-[cis-5-(trifluoromethylsulfonylcarbamoyl)tetrahydrofuran-3-yl]-5-vinyl-4H-isoxazole-5-carboxamide]
80%: pest or weed control at 320 g/ha [2] | pest or weed control at 320 g/ha [5] | pest or weed control at 320 g/ha [7] | pest or weed control at 320 g/ha [8] | pest or weed control at 320 g/ha [10] | pest or weed control at 320 g/ha [20]
80 to 100%: pest or weed control at 80 g/ha [26]
100%: pest or weed control at 80 g/ha [1] | pest or weed control at 80 g/ha [4] | pest or weed control at 80 g/ha [6] | pest or weed control at 80 g/ha [9] | pest or weed control at 80 g/ha [13] | pest or weed control at 80 g/ha [15] | pest or weed control at 80 g/ha [22] | pest or weed control at 320 g/ha [25]
90%: pest or weed control at 320 g/ha [3] | pest or weed control at 80 g/ha [12] | pest or weed control at 80 g/ha [14] | pest or weed control at 80 g/ha [16] | pest or weed control at 80 g/ha [17] | pest or weed control at 320 g/ha [18] | Pre-emergence herbicidal activity in % against PHBPU [19] | pest or weed control at 320 g/ha [21] | pest or weed control at 320 g/ha [23] | pest or weed control at 320 g/ha [24]
